Reference: the NIST ThermoML archive (doi:10.1016/j.jct.2012.07.022)

Columns and labels:
[1] = Liquid; for electrical conductivity: Alternating current cell with electrodes; for viscosity: Capillary tube (Ostwald / Ubbelohde) method; for mass density: Vibrating tube method; for speed of sound: Linear variable-path acoustic interferometer
[2] = refractive index (Na D-line) (dimensionless); conditions: 101.33 kPa, Liquid, Standard Abbe refractometry

O=c1cc[nH]c(=O)[nH]1 [2,4(1H,3H)-pyrimidinedione]
[1], 101 kPa
Conditions	electrical conductivity [S/m]	mass density [kg/m3]	viscosity [mPa·s]
298.15 K	0.296	1097.6	128.5
303.15 K	0.382	1094.5	95.23
308.15 K	0.48	1091.4	72.42
313.15 K	0.594	1088.4	56.38
318.15 K	0.827	1085.3	44.79
323.15 K	0.986	1082.3	36.23
328.15 K	–	1079.3	29.78
333.15 K	–	1076.2	24.82
338.15 K	–	1073.3	20.95
343.15 K	–	1070.3	17.88

CC(=O)[O-].CCCCn1cc[n+](C)c1 [1-butyl-3-methylimidazolium acetate]
[2]
Conditions	refractive index
283.15 K	1.49925
288.15 K	1.49781
293.15 K	1.49634
298.15 K	1.49488
303.15 K	1.49342
308.15 K	1.49197
313.15 K	1.49053
318.15 K	1.48909
323.15 K	1.48765
328.15 K	1.48619
333.15 K	1.48477
338.15 K	1.48332
343.15 K	1.48189

[1], 101.33 kPa
Conditions	electrical conductivity [S/m]	mass density [kg/m3]	speed of sound [m/s]	viscosity [mPa·s]
283.15 K	0.0131	1061.85	1700	1927
288.15 K	0.0215	1058.77	1683	1165
293.15 K	0.0331	1055.69	1666	736.6
298.15 K	0.049	1052.63	1650	485.1
303.15 K	0.0699	1049.61	1635	330.9
308.15 K	0.0968	1046.6	1621	233
313.15 K	0.131	1043.59	1608	168.7
318.15 K	0.172	1040.59	1595	125.2
323.15 K	0.221	1037.58	1582	95.05
328.15 K	–	1034.58	1570	73.63
333.15 K	–	1031.59	1558	58.09
338.15 K	–	1028.61	1546	46.57
343.15 K	–	1025.64	1534	37.91
